≈ marks a conversion by molar mass, not a printed value. Calls of active or inactive are those of the source. The rule behind the calls is not given here.
What was measured:
Staphylococcus aureus = assay: Antibacterial activity against Staphylococcus aureus ATCC 25923 assessed as bacterial growth inhibition incubated for 18 hrs by microdilution method; format: functional
Micrococcus luteus = assay: Antibacterial activity against Micrococcus luteus ATCC 9341 assessed as bacterial growth inhibition incubated for 18 hrs by microdilution method; format: functional
Shigella flexneri = assay: Antibacterial activity against Shigella flexneris ATCC 12022 assessed as bacterial growth inhibition incubated for 18 hrs by microdilution method; format: functional
Escherichia coli = assay: Antibacterial activity against Escherichia coli ATCC 25922 assessed as bacterial growth inhibition incubated for 18 hrs by microdilution method; format: functional
[1] = test system: Staphylococcus epidermidis; assay: Antibacterial activity against Staphylococcus epidermidis ATCC 12228 assessed as bacterial growth inhibition incubated for 18 hrs by microdilution method; format: functional
Bacillus subtilis = assay: Antibacterial activity against Bacillus subtilis ATCC 6633 assessed as bacterial growth inhibition incubated for 18 hrs by microdilution method; format: functional
Streptococcus pneumoniae = assay: Antibacterial activity against Streptococcus pneumoniae ATCC 49619 assessed as bacterial growth inhibition incubated for 18 hrs by microdilution method; format: functional
[2] = test system: Vesicular stomatitis virus; assay: Antiviral activity against GFP transfected VSV infected in MDCK cells assessed as inhibition of viral replication at MOI of 0.1 at 10 uM preincubated for 8 hrs followed by infected with virus incubated for 24 hrs by fluorescence microscope analysis; format: functional, organism-based; conditions: time 32.0 hrs
Influenza A virus = assay: Antiviral activity against PR8-GFP transfected IAV infected in MDCK cells assessed as inhibition of viral replication at MOI of 0.01 at 10 uM preincubated for 8 hrs followed by infected with virus incubated for 24 hrs by fluorescence microscope analysis; format: functional, organism-based; conditions: time 32.0 hrs
[3] = test system: Vesicular stomatitis virus; assay: Antiviral activity against GFP transfected VSV infected in MDCK cells assessed as inhibition of viral replication at MOI of 0.1 at 10 uM preincubated for 8 hrs followed by infected with virus incubated for 24 hrs by flow cytometry (reference value: 51.3+/-1.1%); format: functional; set-up: scale not given: the % may be the effect or the level left; conditions: time 32 hrs

| Compound | MIC (Staphylococcus aureus) | MIC (Micrococcus luteus) | MIC (Shigella flexneri) | MIC (Escherichia coli) | MIC [1] | MIC (Bacillus subtilis) | MIC (Streptococcus pneumoniae) | Activity [2] | Activity (Influenza A virus) | Activity [3] |
| --- | --- | --- | --- | --- | --- | --- | --- | --- | --- | --- |
| CC1=CC2=CC[C@@H]3C(C)(C)[C@H](O)[C@H](O)C[C@@]3(C)[C@@H]2CC1=O | > 64 µg/mL | > 64 µg/mL | > 64 µg/mL | > 64 µg/mL | > 64 µg/mL | > 64 µg/mL | > 64 µg/mL | – | – | – |
| C=Cc1ccc2c(c1)CC[C@@H]1C(C)(C)[C@H](O)[C@H](O)C[C@@]21C | > 64 µg/mL | > 64 µg/mL | > 64 µg/mL | > 64 µg/mL | > 64 µg/mL | > 64 µg/mL | > 64 µg/mL | – | – | – |
| Cc1cc2c(cc1O)[C@]1(C)C[C@@H](O)[C@@H](O)C(C)(C)[C@H]1CC2 | 32 µg/mL (≈ 110 µM) | 32 µg/mL (≈ 110 µM) | 32 µg/mL (≈ 110 µM) | > 64 µg/mL | 32 µg/mL (≈ 110 µM) | 32 µg/mL (≈ 110 µM) | 32 µg/mL (≈ 110 µM) | – | – | – |
| Cc1cc2c(cc1O)[C@]1(C)C[C@@H](O)[C@@H](O)C(C)(C)C1=CC2=O | > 64 µg/mL | > 64 µg/mL | > 64 µg/mL | > 64 µg/mL | > 64 µg/mL | > 64 µg/mL | > 64 µg/mL | – | – | – |
| Cc1cc2c(cc1O)[C@]1(C)C[C@@H](O)[C@@H](O)C(C)(C)[C@H]1CC2=O | > 64 µg/mL | > 64 µg/mL | > 64 µg/mL | > 64 µg/mL | > 64 µg/mL | > 64 µg/mL | > 64 µg/mL | – | – | – |
| C=Cc1c(C)c(O)cc2c1CC[C@@H]1C(C)(C)[C@H](O)[C@H](O)C[C@@]21C | 12 µg/mL (≈ 37.9 µM) | 16 µg/mL (≈ 50.6 µM) | 12 µg/mL (≈ 37.9 µM) | > 64 µg/mL | 12 µg/mL (≈ 37.9 µM) | 12 µg/mL (≈ 37.9 µM) | 16 µg/mL (≈ 50.6 µM) | Active | Active | 3.4% |
| C=CC1=C(C)C(=O)C=C2[C@]1(O)CC[C@@H]1C(C)(C)[C@H](O)[C@H](O)C[C@@]21C | > 64 µg/mL | > 64 µg/mL | > 64 µg/mL | > 64 µg/mL | > 64 µg/mL | > 64 µg/mL | > 64 µg/mL | – | – | – |
| CC[C@H]1OC(=O)[C@H](C)[C@@H](O[C@H]2C[C@@](C)(OC)[C@@H](O)[C@H](C)O2)[C@H](C)[C@@H](O[C@@H]2O[C@H](C)C[C@H](N(C)C)[C@H]2O)[C@](C)(OC)C[C@@H](C)C(=O)[C@H](C)[C@@H](O)[C@]1(C)O [CLARITHROMYCIN] | 0.25 µg/mL (≈ 0.334 µM) | < 0.125 µg/mL | < 0.125 µg/mL | 2 µg/mL (≈ 2.67 µM) | 0.25 µg/mL (≈ 0.334 µM) | < 0.125 µg/mL | < 0.125 µg/mL | – | – | – |
| Cc1ccc2c(c1)CC[C@@H]1C(C)(C)[C@H](O)[C@H](O)C[C@@]21C | > 64 µg/mL | > 64 µg/mL | > 64 µg/mL | > 64 µg/mL | > 64 µg/mL | > 64 µg/mL | > 64 µg/mL | – | – | – |
